Assay results: patent US20210346391A1, “TREATMENT OF PRURITUS WITH P2X3 MODULATORS” (Bellus Health Cough Inc., priority 2018, published 2021)

Tests used:
[1] = tested on: chloroquine (CQ) induced itch behavior; assay: Chloroquine-induced mouse model of acute itch and its potentiation by α,β-Me-ATP; format: in vivo
[2] = tested on: chronic itch behavior (spontaneous scratches); assay: AEW (acetone-ether-water) dry skin model of chronic itch; format: in vivo, mouse; conditions: Day 10
[3] = tested on: chronic itch behavior (spontaneous scratches); assay: MC903 atopic dermatitis model of chronic itch; format: in vivo, mouse; conditions: Day 8
Protocol: MC903 (calcipotriol, Tocris) was dissolved in 100% ethanol and topically applied on C57B16/J male mouse ears (4 nmol in 40 μl, 10 μl per side of ear) or nape (4 nmol in 40 μl). This regimen was administered twice daily for 7 days. Scratching behaviors were recorded 16 h after the last MC903 treatment. […] Mice were placed individually into behavior chambers and video recorded at a side angle for 60-90 minutes. A scratch was defined as a lifting of the hind limb towards the nape or head to scratch and then a replacing of the limb back to the floor, regardless of how many scratching strokes take place between lifting and lowering of the hind limb. Experimenters for injections and observers of scratching behavior were blinded to the injection compounds and groups of mice, respectively.

CNC(=O)c1cc(F)c(-c2nc3cc(C)ccn3c2C[C@H]2CN(C(=O)OC)CCO2)c(F)c1 [Compound 1]
number of scratches in 15 minutes (mean ± s.e.m.) ([1]; 20 μg CQ + 50 μM α,β-Me-ATP, 10 mg/kg i.p., vehicle 46.6±2.9, p=0.0084): 28.3±4.6 scratches
decrease of the potentiation of CQ-induced itch by ATP ([1]; 20 μg CQ + 50 μM α,β-Me-ATP, 10 mg/kg i.p., vs vehicle): 40%
scratching behavior compared to vehicle ([1]; 20 μg CQ + 50 μM α,β-Me-ATP, 2, 10, or 50 mg/kg i.p. 30 min before, FIG. 2): decreased scratching behavior
number of scratches in 15 minutes (mean ± s.e.m.) ([1]; 20 μg CQ + 100 μM α,β-Me-ATP, 10 mg/kg i.p., vehicle 67±6.3, p=0.0074, FIG. 3): 44.8±3.8 scratches
decrease of the potentiation of CQ-induced itch by higher concentrations of ATP ([1]; 20 μg CQ + 100 μM α,β-Me-ATP, 10 mg/kg i.p., vs vehicle): 33%
decrease of itch induced by high dose CQ ([1]; 200 μg CQ, 10 mg/kg i.p., vs vehicle): 21%
number of scratches in 30 minutes (mean ± s.e.m.) ([1]; high dose CQ 200 μg, 10 mg/kg i.p., vehicle 280±16.1, p=0.011, FIG. 4): 221.8±12.9 scratches
time course of spontaneous scratches in 10-min intervals ([2]; 2, 10, 50 mg/kg i.p., FIG. 6): significant effect on spontaneous scratches at 20 min, 40 min, 50 min, and 60 min
spontaneous scratches in 60 min compared to vehicle ([2]; 2, 10, or 50 mg/kg i.p., statistically significant for all doses (p<0.001), FIG. 5): decreased spontaneous scratches
time course of spontaneous scratches in 10-min intervals ([3]; 2, 10, 50 mg/kg i.p., FIG. 8): significant effect on spontaneous scratches at 10 min, 20 min, 30 min, 40 min, 50 min, and 60 min time points
spontaneous scratches in 60 min compared to vehicle ([3]; 2, 10, or 50 mg/kg i.p., statistically significant for all three doses, FIG. 7): dose-dependently decreased spontaneous scratches

CCN(CC)CCCC(C)Nc1ccnc2cc(Cl)ccc12 (stereo not shown) [CQ, chloroquine, reference compound]
number of scratches (mean ± s.e.m.) ([1]; mouse, in vivo): 17.2±2.4 scratches

Nc1ncnc2c1ncn2C1OC(COP(=O)(O)CP(=O)(O)OP(=O)(O)O)C(O)C1O (stereo not drawn) [α,β-Me-ATP, α,β-methylene-adenosine 5′-triphosphate, reference compound]
number of scratches (mean ± s.e.m.) ([1]; co-injected i.d. low dose CQ (20 μg) + 10 μM α,β-Me-ATP, p=0.0013 vs CQ): 28.2±2.2 scratches
scratching behavior compared to CQ only or CQ+10 μM α,β-Me-ATP ([1]; co-injected i.d. low dose CQ (20 μg) + 50 μM α,β-Me-ATP, p<0.001 vs CQ, FIG. 1): further increased scratching behaviors
number of scratches (mean ± s.e.m.) ([1]; mice injected i.d. solely with 10 μM α,β-Me-ATP): 2.4±0.9 scratches
number of scratches (mean ± s.e.m.) ([1]; mice injected i.d. solely with 50 μM α,β-Me-ATP): 5.6±1.8 scratches
